# Experimental data as given in patent US9949473B2, “Coagulation controlling agents and devices comprising the same” (Becton, Dickinson and Company, priority 2011, dated 2018).
# Ends that are not written are not given here.
# Legend:
# thrombin [1] = biological target: T1, thrombin (Homo sapiens, UniProt P00734); test: Accelerated stability of sprayed thrombin with para-aminobenzamidine (thrombin activity on Stago Compact); assay type: biochemical; settings: para-aminobenzamidine about 3 mM in about 5 mM citrate or isocitrate pH about 6.1; sealed tubes at about 43° C., about 75% relative humidity; compared to citrates alone; FIG. 6, FIG. 7
# T1 construct: In preferred embodiments, thrombin is alpha-thrombin
# Procedure: The coagulation controlling agent para-aminobenzamidine was evaluated to determine if it improved the stability of sprayed thrombin under accelerated stability conditions. Without wishing to be bound by any particular theory, it is believed that para-aminobenzamidine stabilizes the spray-dried thrombin under conditions of extremely high humidity, where thrombin autolytic degradation can be rapid, even at room temperature.
# Thrombin was prepared in about 5 mM citrate or isocitrate at a pH of about 6.1. Para-aminobenzamidine was added at a concentration of about 3 mM. About 16 μL of this solution was sprayed into 13×100 mm PET tubes. The tubes were dried by forced hot air, and evacuated. Sealed tubes were then placed in a controlled environmental chamber previously equilibrated to about 43° C. and about 75% relative humidity. At various time intervals, the tubes were removed and evaluated for thrombin activity on the Stago Compact coagulation analyzer. The error bars indicate the 95% confidence interval for the thrombin activity with 5 replicates.
# [2] = tested on: freshly drawn human blood; test: Visual scoring of fibrin mass in serum from blood clotted in thrombin/protamine tubes; settings: protamine about 0.5 mg/mL; FIG. 2
# Procedure: Protamine sulfate was first resuspended in about 0.5 M hydrochloric acid at a concentration of about 250 mg/mL. This solution was then titrated to a pH of about 6 with 5 N sodium hydroxide. This titration to about pH 6 was performed immediately since prolonged exposure of protamine to low pH, it was believed, would result in hydrolysis and loss of activity. It is also believed that more dilute solutions of hydrochloric acid could be used for preparing the protamine solution.
# The protamine solution was then mixed in a ratio of about 1:1 with a solution of about 1250 U/mL of thrombin in about 40 mM sodium citrate at about pH 6.0, containing about 20 mg/mL of a siloxane alkoxylate surfactant, and 2 mg/mL polyvinylpyrrolidone (PVP).
# The resulting reagent was filtered and sprayed in 20 μL shots into 13×100 mm polyethyleneterephthalate (PET) tubes. The tubes were then dried by forced hot air, and evacuated and stoppered.
# Tubes were filled with freshly drawn human blood and allowed to clot for between about 1 to about 3.5 minutes (randomized) and then centrifuged. The resulting serum was scored by visual assessment for the presence of a “fibrin mass” in the serum compartment on a scale of 0 to 3, with 3 being the most severe.
# [3] = tested on: reconstituted commercial lyophilized human plasma; test: Clotting time of plasma with thrombin/protamine solutions on Stago Compact coagulation analyzer; assay type: biochemical; settings: thrombin and protamine in about 20 mM citrate pH about 6, mixed about 1:1 with plasma; FIG. 3
# Procedure: Solutions of thrombin and protamine in about 20 mM of citrate at a pH of about 6 were mixed in a ratio of about 1:1 with reconstituted commercial lyophilized human plasma and tested on a Stago Compact coagulation analyzer. The resulting clotting times were measured as a function of thrombin and protamine concentration for a given thrombin concentration. The concentrations listed on the graph of FIG. 3 represent the thrombin/protamine solutions before being mixed with the plasma.
# thrombin [4] = biological target: T1, thrombin; test: Accelerated stability of sprayed thrombin with protamine (thrombin activity on Stago Compact); assay type: biochemical; settings: about 45% relative humidity
# Procedure: A mixture of thrombin (about 1250 U/mL), protamine (about 125 mg/mL or about 62.5 mg/mL), and a siloxane alkoxylate surfactant was prepared in about 20 mM citrate at a pH of about 6.0. About 20 μL of this mixture was sprayed into 13×100 mm PET tubes. The tubes were dried by forced hot air, evacuated, and stored in the refrigerator. At the initiation of the study, the tubes were uncapped and placed in a controlled environmental chamber previously equilibrated to about 50° C. and about 45% relative humidity. At various time intervals, tubes were removed and evaluated for thrombin activity on the Stago Compact coagulation analyzer. The error bars indicate the 95% confidence interval for the thrombin activity with 5 replicates.
# When the thrombin activity of subsequent time points were normalized on the initial value, the resulting curves could be used to compare the relative stability of each formulation (see FIG. 5).
thrombin stability over time (thrombin [1]),"relative stability (thrombin activity normalized on the initial value) (thrombin [4]; about 50° C., compared with thrombin formulations without protamine, FIG. 5)",Molecule,performance of the tube (fibrin mass formation) [2],clotting time as a function of protamine concentration [3],"thrombin activity over time (thrombin [4]; thrombin about 1250 U/mL, protamine about 125 or about 62.5 mg/mL, sprayed and dried in PET tubes, uncapped at about 50° C., FIG. 4)"
preserves thrombin stability over time,,N=C(N)c1ccc(N)cc1 [para-aminobenzamidine],,,
,more stable,Protamine sulfate (PRRRRSSSRPVRRRRRPRVSRRRRRRGGRRRR; also: sulfate salt) [coagulation controlling agent; ID; NO; 1 in some embodiments],improved the performance of the tube dramatically,decreasing clotting time with increasing protamine concentration,better with the protamine than without it
